Results from publication PMC7696940, “Effects of Rationally Designed Physico-Chemical Variants of the Peptide PuroA on Biocidal Activity towards Bacterial and Mammalian Cells” (International Journal of Molecular Sciences, 2020).
≈ marks a conversion by molar mass, not a printed value. Where no end group is shown, it is not given here.

Assays:
HeLa cells = type: cell-based, human; details: MTT, 24 h, peptide up to 250 µg/mL; concentration causing 50% cell growth inhibition; mean of triplicate assays
Description: Cytotoxicity to human cervical carcinoma HeLa cells and mouse fibroblastic NIH-3T3 cells was determined using the MTT assay as per Scudiero et al. with minor modifications. The cells were maintained in Dulbecco’s Modified Eagle Medium (DMEM) with 10% foetal bovine serum (FBS) and 1% penicillin G in a humidified incubator (Heraeus Hera Cell incubator) at 37 °C with 5% CO2. They were seeded in 96-well microtiter plates at 1 × 10^4 cells/well and allowed to adhere for 24 h in the incubator. The medium was removed, and adherent cells were washed with PBS. Fresh media containing serially diluted peptides in PBS (final concentrations 4 to 250 µg/mL) were added and the cells incubated for 24 h. Cells without peptides were used as negative controls. Following incubations, the medium was removed, and adherent cells were washed with PBS. 150 µL of MTT (diluted to 0.33 mg/mL in DMEM) and the plates incubated for 3 h. The precipitated formazan was dissolved in 100 µL of DMSO and its absorbance measured at 570 nm. Cell viability was determined as: (OD570 nm peptide treated cells/(OD570 nm untreated cells) × 100. Positive cytotoxicity was defined as peptide concentration that causes 50% growth inhibition in a cell line (IC50). All tests were carried out in triplicate.

P. aeruginosa ATCC9027 = type: cell-based, Pseudomonas aeruginosa; details: MHB, 37 °C overnight, A595; mode of three independent experiments
Description: (§1) The activity of peptides was determined against the Gram-positive Staphylococcus aureus (ATCC 25923), and the Gram-negative Escherichia coli (ATCC 25922) and Pseudomonas aeruginosa (ATCC 9027) bacteria. Selected peptides were also tested against two clinical isolates of methicillin-resistant Staphylococcus aureus (MRSA), M173525 and M180920, kindly provided by Dr P. B. Ward (Microbiology Department, Austin and Repatriation Medical Centre, Heidelberg West, Victoria, Australia). The Minimum inhibitory concentration (MIC) of peptides was determined by the microtitre broth dilution method, as described in Phillips et al.. Briefly, bacteria were grown in Mueller-Hinton Broth (MHB) at 37 °C overnight with shaking (200 rpm). The cultures were adjusted to 0.5 McFarland turbidity standard (approximately 1 × 10^8 colony forming units (CFU)/mL), then diluted 1:100 in MHB (1 × 10^6 CFU/mL). A total of 75 μL of these suspensions were mixed with 25 μL of peptide solutions (final concentrations 250 to 0.5 μg/mL) and the microtitre plates incubated overnight at 37 °C. Positive growth controls (inoculum and MHB, with no peptide) and sterility controls (0.01% glacial acetic) were also included. Post-incubations, the absorbance of cultures at 595 nm was measured using a microplate reader (POLARstar Omega, Germany). […] To evaluate salt sensitivity of peptides up to physiological levels (150 mM NaCl), overnight cultures of S. aureus and E. coli adjusted to 0.5 McFarland turbidity standard were diluted 1:100 in MHB containing 0, 50, 100 or 150 mM NaCl, and the MICs of peptides determined as above. All tests were conducted in triplicate. The results are shown as the mode of values obtained.

E. coli ATCC25922 = type: cell-based, Escherichia coli; details: MHB; for MIC E. coli, No NaCl: 0 mM NaCl; for MIC E. coli, No NaCl / MIC E. coli, With 50mM NaCl / MIC E. coli, With 100mM NaCl / MIC E. coli, With 150mM NaCl: triplicate, mode; for MIC E. coli ATCC25922: 37 °C overnight, A595, mode of three independent experiments
Description: as §1

[1] = test system: porcine trypsin and proteinase K; test: Proteases stability assay; type: in vitro ADME, porcine; Tritirachium album; details: 1000 µg peptide with 50 µg protease (20:1 w/w), porcine trypsin or proteinase K, PBS pH 7.4, 37 °C, 3 h; read-out activity of supernatant on E. coli and S. aureus; triplicate
Description: The effect of two well-studied proteases, porcine trypsin and proteinase K from Tritirachium album, on the activity of peptides was investigated as per Carmona et al.. Briefly, 1000 µg of a peptide was incubated with 50 µg of a protease (20:1 w/w) at 37 °C for 3 h in phosphate buffered saline PBS (pH 7.4). The enzyme activity was then terminated by heating (70 °C, 5 min) and the samples centrifuged at 12,000× g. The activity of the supernatant on E. coli and S. aureus was tested as above, in triplicate.

MRSA M173525 = type: cell-based, methicillin-resistant Staphylococcus aureus; details: clinical isolate; MHB, 37 °C overnight; mode of three independent experiments
Description: as §1

MRSA M180920 = type: cell-based, methicillin-resistant Staphylococcus aureus; details: clinical isolate; MHB, 37 °C overnight; mode of three independent experiments
Description: as §1

S. aureus ATCC25923 = type: cell-based, Staphylococcus aureus; details: MHB; for MIC S. aureus, No NaCl: 0 mM NaCl; for MIC S. aureus, No NaCl / MIC S. aureus, With 50mM NaCl / MIC S. aureus, With 100mM NaCl / MIC S. aureus, With 150mM NaCl: triplicate, mode; for MIC S. aureus ATCC25923: 37 °C overnight, A595, mode of three independent experiments
Description: as §1

Compound	IC50 HeLa (HeLa cells) [µg/mL]	MIC P. aeruginosa ATCC9027 (P. aeruginosa ATCC9027) [µg/mL]	MIC E. coli, No NaCl (E. coli ATCC25922) [µg/mL]	MIC E. coli, With 50mM NaCl (E. coli ATCC25922) [µg/mL]	MIC E. coli, With 100mM NaCl (E. coli ATCC25922) [µg/mL]	MIC E. coli, With 150mM NaCl (E. coli ATCC25922) [µg/mL]	MIC E. coli ATCC25922 (E. coli ATCC25922) [µg/mL]	Protease Stability [1]	MIC MRSA M173525 (MRSA M173525) [µg/mL]	MIC MRSA M180920 (MRSA M180920) [µg/mL]	MIC S. aureus, No NaCl (S. aureus ATCC25923) [µg/mL]	MIC S. aureus, With 50mM NaCl (S. aureus ATCC25923) [µg/mL]	MIC S. aureus, With 100mM NaCl (S. aureus ATCC25923) [µg/mL]	MIC S. aureus, With 150mM NaCl (S. aureus ATCC25923) [µg/mL]	MIC S. aureus ATCC25923 (S. aureus ATCC25923) [µg/mL]
CC(C)[C@H](NC(=O)[C@@H]1CCCN1C(=O)[C@@H](N)Cc1ccccc1)C(=O)N[C@H](C(=O)N[C@@H](Cc1c[nH]c2ccccc12)C(=O)N[C@@H](CCCNC(=N)N)C(=O)N[C@@H](Cc1c[nH]c2ccccc12)C(=O)N[C@@H](Cc1c[nH]c2ccccc12)C(=O)N[C@@H](CCCCN)C(=O)N[C@@H](Cc1c[nH]c2ccccc12)C(=O)N[C@@H](Cc1c[nH]c2ccccc12)C(=O)N[C@@H](CCCCN)C(=O)NCC(N)=O)[C@@H](C)O [PuroA]	>250	64 (≈ 34.4 µM)	16 (≈ 8.59 µM)	16 (≈ 8.59 µM)	32 (≈ 17.2 µM)	64 (≈ 34.4 µM)	16 (≈ 8.59 µM)	Unstable	16 (≈ 8.59 µM)	16 (≈ 8.59 µM)	16 (≈ 8.59 µM)	16 (≈ 8.59 µM)	32 (≈ 17.2 µM)	64 (≈ 34.4 µM)	16 (≈ 8.59 µM)
RKRWWRWWKWWKR-NH2 [Peptide P1]	32	16	16	16	16	16		Unstable	16	8	16	16	16	16	
WRWWKWW-NH2 [Peptide W7]	250	32	4	4	4	4	4	Unstable	8	8	8	8	8	8	8
WWRWWKWW-NH2 [WW]	250	32	8	8	8	8	8	Unstable	4	4	8	8	8	8	8
